Test results published in US20240269304A1, “BCL-XL INHIBITOR ANTIBODY-DRUG CONJUGATES AND METHODS OF USE THEREOF” (Novartis AG, priority 2020, published 2024).
Read-outs that look alike come from different tables or passages of the source.

What was measured:
ALL-SIL cells = assay: CellTiterGlo (CTG) cell viability, 72 h, ALL-SIL (Example 8); format: cell-based
Experimental: ALL-SIL cells were cultivated in RPMI supplemented with 20% heat inactivated fetal bovine serum, penicillin (100 IU/ml), streptomycin (100 μg/ml) and L-glutamine (2 mM). Cell lines were cultured at 37° C. in a humidified atmosphere containing 5% CO2. Cells were seeded in 96 well clear bottom plates (96 well clear-bottom, white, Corning reference 3903) and exposed to the payloads or ADCs for 72 h (serially diluted; 9 concentrations each, triplicates). Effects of payloads or ADCs on cell viability were assessed after 3 days of incubation at 37° C./5% CO2 by quantification of cellular ATP levels using CellTiterGlo at 75 μL reagent/well. All the conditions were tested in triplicates. Luminescence was quantified on a multipurpose plate reader. IC50s were calculated using standard four-parametric curve fitting. […] Each experiment was performed at least twice, with results being reproducible.

DND-41 cells = assay: CellTiterGlo (CTG) cell viability, 72 h, DND-41 (Example 8); format: cell-based
Experimental: DND-41 cells were cultivated in RPMI supplemented with 10% heat inactivated fetal bovine serum, penicillin (100 IU/ml), streptomycin (100 μg/ml) and L-glutamine (2 mM). Cell lines were cultured at 37° C. in a humidified atmosphere containing 5% CO2. […] Effects of payloads or ADCs on cell viability were assessed after 3 days of incubation at 37° C./5% CO2 by quantification of cellular ATP levels using CellTiterGlo at 75 μL reagent/well. All the conditions were tested in triplicates. Luminescence was quantified on a multipurpose plate reader. IC50s were calculated using standard four-parametric curve fitting.

H1650 cells = assay: CellTiterGlo (CTG) cell viability, 3D, 120 h, H1650 (Example 8); format: cell-based, human; details: Homo sapiens, NCI-H1650, H1650 3D
[1] = experiment n1, read-out: ALLSIL CTG 72 h IC50 nM n1
[2] = experiment n2, read-out: ALLSIL CTG 72 h IC50 nM n2
[3] = mean of n1 and n2, read-out: ALLSIL CTG 72 h IC50 nM Mean of n1 and n2
[4] = DND41, experiment n1, read-out: DND41 CTG 72 h IC50 nM n1
[5] = DND41, experiment n2, read-out: DND41 CTG 72 h IC50 nM n2
[6] = DND41, mean of n1 and n2, read-out: DND41 CTG 72 h IC50 nM Mean of n1 and n2
[7] = experiment n1, read-out: H1650 3D CTG IC50 n1
[8] = experiment n2, read-out: H1650 3D CTG IC50 n2
[9] = mean of n1 and n2, read-out: H1650 3D CTG IC50 Mean of n1 and n2

| Structure (SMILES) | IC50 (H1650 cells; [7]) [nM] | IC50 (H1650 cells; [8]) [nM] | IC50 (H1650 cells; [9]) [nM] | IC50 (ALL-SIL cells; [1]) [nM] | IC50 (ALL-SIL cells; [2]) [nM] | IC50 (ALL-SIL cells; [3]) [nM] | IC50 (DND-41 cells; [4]) [nM] | IC50 (DND-41 cells; [5]) [nM] | IC50 (DND-41 cells; [6]) [nM] |
| --- | --- | --- | --- | --- | --- | --- | --- | --- | --- |
| CNCC#Cc1ccc(OCCCc2sc(N(CCC(O)CO)c3cc(C)c(Nc4nc5ccccc5s4)nn3)nc2C(=O)O)c(F)c1 (stereo not drawn) [P44, 2-[[6-(1,3-Benzothiazol-2-ylamino)-5-methyl-pyridazin-3-yl]-(3,4-dihydroxybutyl)amino]-5-[3-[2-fluoro-4-[3-(methylamino)prop-1-ynyl]phenoxy]propyl]thiazole-4-carboxylic acid] |  |  |  | 4.64 | 3.14 | 3.89 | 36 | 33.6 | 34.8 |
| CNCC#Cc1ccc(OCCCc2sc(N(CCCO)c3cc(C)c(Nc4nc5ccccc5s4)nn3)nc2C(=O)O)c(F)c1 [P45, 2-[[6-(1,3-Benzothiazol-2-ylamino)-5-methyl-pyridazin-3-yl]-(3-hydroxypropyl)amino]-5-[3-[2-fluoro-4-[3-(methylamino)prop-1-ynyl]phenoxy]propyl]thiazole-4-carboxylic acid] |  |  |  | 3.11 | 4.01 | 3.56 | 17 | 16.8 | 16.9 |
| CNCC#Cc1ccc(OCCCc2sc(N(CCCC(O)CO)c3cc(C)c(Nc4nc5ccccc5s4)nn3)nc2C(=O)O)c(F)c1 (stereo not drawn) [P46, 2-[[6-(1,3-Benzothiazol-2-ylamino)-5-methyl-pyridazin-3-yl]-(4,5-dihydroxypentyl)amino]-5-[3-[2-fluoro-4-[3-(methylamino)prop-1-ynyl]phenoxy]propyl]thiazole-4-carboxylic acid] |  |  |  | 62.2 | 50 | 56.1 | 212 | 220 | 216 |
| Cc1c(Nc2nc3ccccc3s2)nnc2c1CCCN2c1ccc(-c2cnn(CC34CC5(C)CC(C)(C3)CC(OCCN(C)CCC(=O)O)(C5)C4)c2C)c(C(=O)O)n1 [P70, 6-[3-(1,3-benzothiazol-2-ylamino)-4-methyl-6,7-dihydro-5H-pyrido[2,3-c]pyridazin-8-yl]-3-[1-[[3-[2-[2-carboxyethyl(methyl)amino]ethoxy]-5,7-dimethyl-1-adamantyl]methyl]-5-methyl-pyrazol-4-yl]pyridine-2-carboxylic acid] | 9.65 | 9.49 | 9.57 |  |  |  |  |  |  |
| Cc1c(Nc2nc3ccccc3s2)nnc2c1CCCN2c1ccc(-c2cnn(CC34CC5(C)CC(C)(C3)CC(OCCNCCC(=O)O)(C5)C4)c2C)c(C(=O)O)n1 [P71, 6-[3-(1,3-benzothiazol-2-ylamino)-4-methyl-6,7-dihydro-5H-pyrido[2,3-c]pyridazin-8-yl]-3-[1-[[3-[2-(2-carboxyethylamino)ethoxy]-5,7-dimethyl-1-adamantyl]methyl]-5-methyl-pyrazol-4-yl]pyridine-2-carboxylic acid] | 16.3 | 13.4 | 14.8 |  |  |  |  |  |  |
| Cc1c(Nc2nc3ccccc3s2)nnc2c1CCCN2c1ccc(-c2cnn(CC34CC5(C)CC(C)(CC(CCCNCCCCO)(C5)C3)C4)c2C)c(C(=O)O)n1 [P72, 6-[3-(1,3-benzothiazol-2-ylamino)-4-methyl-6,7-dihydro-5H-pyrido[2,3-c]pyridazin-8-yl]-3-[1-[[3-[3-(4-hydroxybutylamino)propyl]-5,7-dimethyl-1-adamantyl]methyl]-5-methyl-pyrazol-4-yl]pyridine-2-carboxylic acid] | 5.07 | 5.57 | 5.32 |  |  |  |  |  |  |
| Cc1c(Nc2nc3ccccc3s2)nnc2c1CCCN2c1ccc(-c2cnn(CC34CC5(C)CC(C)(C3)CC(OCCN3CCCC3)(C5)C4)c2C)c(CO)n1 [P73, [6-[3-(1,3-benzothiazol-2-ylamino)-4-methyl-6,7-dihydro-5H-pyrido[2,3-c]pyridazin-8-yl]-3-[1-[[3,5-dimethyl-7-(2-pyrrolidin-1-ylethoxy)-1-adamantyl]methyl]-5-methyl-pyrazol-4-yl]-2-pyridyl]methanol] | 8.6 | 9.41 | 9.01 |  |  |  |  |  |  |

More lines, in order of falling IC50 (H1650 cells; [7]), values ahead:

| IC50 (H1650 cells; [7]) [nM] | IC50 (H1650 cells; [8]) [nM] | IC50 (H1650 cells; [9]) [nM] | Structure (SMILES) | IC50 (ALL-SIL cells; [1]) [nM] | IC50 (ALL-SIL cells; [2]) [nM] | IC50 (ALL-SIL cells; [3]) [nM] | IC50 (DND-41 cells; [4]) [nM] | IC50 (DND-41 cells; [5]) [nM] | IC50 (DND-41 cells; [6]) [nM] |
| --- | --- | --- | --- | --- | --- | --- | --- | --- | --- |
| 3.78 | 5.56 | 4.67 | Cc1c(Nc2nc3ccccc3s2)nnc2c1CCCN2c1ccc(-c2cnn(CC34CC5(C)CC(C)(CC(CCCNCC[C@H](O)CO)(C5)C3)C4)c2C)c(C(=O)O)n1 [P69, 6-[3-(1,3-benzothiazol-2-ylamino)-4-methyl-6,7-dihydro-5H-pyrido[2,3-c]pyridazin-8-yl]-3-[1-[[3-[3-[[(3S)-3,4-dihydroxybutyl]amino]propyl]-5,7-dimethyl-1-adamantyl]methyl]-5-methyl-pyrazol-4-yl]pyridine-2-carboxylic acid] |  |  |  |  |  |  |
| 2.3 | 3.03 | 2.67 | Cc1c(Nc2nc3ccccc3s2)nnc2c1CCCN2c1ccc(-c2cnn(CC34CC5(C)CC(C)(C3)CC(OCCN3CCCC3)(C5)C4)c2C)c(C(=O)NC(C)C)n1 [P75, 6-[3-(1,3-benzothiazol-2-ylamino)-4-methyl-6,7-dihydro-5H-pyrido[2,3-c]pyridazin-8-yl]-3-[1-[[3,5-dimethyl-7-(2-pyrrolidin-1-ylethoxy)-1-adamantyl]methyl]-5-methyl-pyrazol-4-yl]-N-isopropyl-pyridine-2-carboxamide] |  |  |  |  |  |  |
| 2 | 1.86 | 1.93 | Cc1c(Nc2nc3ccccc3s2)nnc2c1CCCN2c1ccc(-c2cnn(CC34CC5(C)CC(C)(C3)CC(OCCN3CCCC3)(C5)C4)c2C)c(C(=O)N2CCCC2)n1 [P74, [6-[3-(1,3-benzothiazol-2-ylamino)-4-methyl-6,7-dihydro-5H-pyrido[2,3-c]pyridazin-8-yl]-3-[1-[[3,5-dimethyl-7-(2-pyrrolidin-1-ylethoxy)-1-adamantyl]methyl]-5-methyl-pyrazol-4-yl]-2-pyridyl]-pyrrolidin-1-yl-methanone] |  |  |  |  |  |  |
| 2 | 3.87 | 2.94 | Cc1c(Nc2nc3ccccc3s2)nnc2c1CCCN2c1ccc(-c2cnn(CC34CC5(C)CC(C)(C3)CC(OCCN3CCCC3)(C5)C4)c2C)c(C(N)=O)n1 [P76, 6-[3-(1,3-benzothiazol-2-ylamino)-4-methyl-6,7-dihydro-5H-pyrido[2,3-c]pyridazin-8-yl]-3-[1-[[3,5-dimethyl-7-(2-pyrrolidin-1-ylethoxy)-1-adamantyl]methyl]-5-methyl-pyrazol-4-yl]pyridine-2-carboxamide] |  |  |  |  |  |  |
| 0.84 | 0.68 | 0.76 | Cc1c(Nc2nc3ccccc3s2)nnc2c1CCCN2c1ccc(-c2cnn(CC34CC5(C)CC(C)(CC(CCCN(C)CCCO)(C5)C3)C4)c2C)c(C(=O)O)n1 [P68, 6-[3-(1,3-benzothiazol-2-ylamino)-4-methyl-6,7-dihydro-5H-pyrido[2,3-c]pyridazin-8-yl]-3-[1-[[3-[3-[3-hydroxypropyl(methyl)amino]propyl]-5,7-dimethyl-1-adamantyl]methyl]-5-methyl-pyrazol-4-yl]pyridine-2-carboxylic acid] |  |  |  |  |  |  |
| 0.7 | 1.8 | 1.25 | Cc1c(Nc2nc3ccccc3s2)nnc2c1CCCN2c1nc(C(=O)O)c(CCCOc2ccc(C#CC(C)N3CCN(C)CC3)cc2F)s1 (stereo not drawn) [P8, 2-[3-(1,3-Benzothiazol-2-ylamino)-4-methyl-6,7-dihydro-5H-pyrido[2,3-c]pyridazin-8-yl]-5-[3-[2-fluoro-4-[3-(4-methylpiperazin-1-yl)but-1-ynyl]phenoxy]propyl]thiazole-4-carboxylic acid] | 0.02 | 0.03 | 0.02 | 0.69 | 0.41 | 0.55 |
| 0.7 | 1.4 | 1.05 | Cc1c(Nc2nc3ccccc3s2)nnc2c1CCCN2c1nc(C(=O)O)c(CCCOc2ccc(C#CCN3CCCC3)cc2F)s1 [P9, 2-[3-(1,3-Benzothiazol-2-ylamino)-4-methyl-6,7-dihydro-5H-pyrido[2,3-c]pyridazin-8-yl]-5-[3-[2-fluoro-4-(3-pyrrolidin-1-ylprop-1-ynyl)phenoxy]propyl]thiazole-4-carboxylic acid] | 3.31 | 1.1 | 2.21 | 21.8 | 19.3 | 20.6 |
| 0.51 | 1.28 | 0.9 | Cc1c(Nc2nc3ccccc3s2)nnc2c1CCCN2c1nc(C(=O)O)c(CCCOc2ccc(C#CCN(C)C)cc2F)s1 [P1, 2-[3-(1,3-Benzothiazol-2-ylamino)-4-methyl-6,7-dihydro-5H-pyrido[2,3-c]pyridazin-8-yl]-5-[3-[4-[3-(dimethylamino)prop-1-ynyl]-2-fluoro-phenoxy]propyl]thiazole-4-carboxylic acid] | 0.38 | 0.14 | 0.26 | 1.3 | 0.26 | 0.78 |
